Test results from patent publication US7501430B2 (ArQule, Inc., priority 2006, dated 2009).

Molecular target: T1, mutant B-RAF (Homo sapiens, UniProt P15056, V600E)
T1 construct: purchased Upstate (Charlottesville, Va.)
Experiment: RAF biochemical assay (MEK-1 phosphorylation, anti-phospho MEK1/2 detection)
Conditions: read-out: Mutant B-RAF IC50
Outline: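 Detection is by ELISA: after a 30 min room-temperature reaction, plate-captured GST-MEK-1 is probed with anti-phospho MEK1/2, then an AP-tagged secondary antibody with fluorescent Attophos read-out.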

T1 sequence (P15056 whole entry V600E): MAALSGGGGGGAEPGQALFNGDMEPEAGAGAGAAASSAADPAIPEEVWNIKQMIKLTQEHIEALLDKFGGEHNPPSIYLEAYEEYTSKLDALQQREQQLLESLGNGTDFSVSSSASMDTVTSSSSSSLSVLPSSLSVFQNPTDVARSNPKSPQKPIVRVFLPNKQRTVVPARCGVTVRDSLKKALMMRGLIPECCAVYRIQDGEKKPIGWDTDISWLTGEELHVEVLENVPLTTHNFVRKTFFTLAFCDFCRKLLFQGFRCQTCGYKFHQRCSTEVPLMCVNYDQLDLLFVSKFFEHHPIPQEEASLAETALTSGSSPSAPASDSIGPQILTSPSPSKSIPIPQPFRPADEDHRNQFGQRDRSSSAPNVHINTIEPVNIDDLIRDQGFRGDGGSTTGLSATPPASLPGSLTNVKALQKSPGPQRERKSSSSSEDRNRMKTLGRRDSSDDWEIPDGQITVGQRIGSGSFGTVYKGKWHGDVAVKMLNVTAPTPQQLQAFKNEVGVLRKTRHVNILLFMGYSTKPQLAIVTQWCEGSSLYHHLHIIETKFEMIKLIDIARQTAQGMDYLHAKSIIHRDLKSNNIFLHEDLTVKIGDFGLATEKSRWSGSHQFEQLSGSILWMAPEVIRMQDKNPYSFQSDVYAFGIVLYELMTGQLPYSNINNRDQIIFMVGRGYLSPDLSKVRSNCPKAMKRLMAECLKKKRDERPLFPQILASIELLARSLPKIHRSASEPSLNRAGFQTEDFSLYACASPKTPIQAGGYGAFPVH

With `CC(C)S(=O)(=O)N1CCC[C@@H](Nc2nccc(-c3c(-c4cccc(O)c4)nc4sccn34)n2)C1` [Example 368, 3-[5-(2-{[(3R)-1-(isopropylsulfonyl)piperidin-3-yl]amino}pyrimidin-4-yl)imidazo[2,1-b][1,3]thiazol-6-yl]phenol] as the molecule, how does the IC50 read?
The IC50 was greater than 3000 nM.

For `O=S(=O)(Cc1ccccc1)N1CCC[C@@H](Nc2nccc(-c3c(-c4cccc(O)c4)nc4sccn34)n2)C1` [Example 369, 3-[5-(2-{[(3R)-1-(benzylsulfonyl)piperidin-3-yl]amino}pyrimidin-4-yl)imidazo[2,1-b][1,3]thiazol-6-yl]phenol], which IC50 is on record?
The IC50 was greater than 3000 nM.

How did the IC50 turn out when `CCCS(=O)(=O)N1CCC[C@@H](Nc2nccc(-c3c(-c4cccc(O)c4)nc4sccn34)n2)C1` [Example 370, 3-[5-(2-{[(3R)-1-(propylsulfonyl)piperidin-3-yl]amino}pyrimidin-4-yl)imidazo[2,1-b][1,3]thiazol-6-yl]phenol] was run?
The IC50 was 1200 nM.

Which IC50 does the source give for `O=S(=O)(c1cccs1)N1CCC[C@@H](Nc2nccc(-c3c(-c4cccc(O)c4)nc4sccn34)n2)C1` [Example 371, 3-[5-(2-{[(3R)-1-(2-thienylsulfonyl)piperidin-3-yl]amino}pyrimidin-4-yl)imidazo[2,1-b][1,3]thiazol-6-yl]phenol] here?
Its IC50 is 3 nM.

For `O=S(=O)(c1ccccc1)N1CCC[C@@H](Nc2nccc(-c3c(-c4cccc(O)c4)nc4sccn34)n2)C1` [Example 372, 3-[5-(2-{[(3R)-1-(phenylsulfonyl)piperidin-3-yl]amino}pyrimidin-4-yl)imidazo[2,1-b][1,3]thiazol-6-yl]phenol], which IC50 is on record?
The IC50 was 3 nM.

For `CCS(=O)(=O)N1CCC[C@@H](Nc2nccc(-c3c(-c4cccc(O)c4)nc4sccn34)n2)C1` [Example 373, 3-[5-(2-{[(3R)-1-(ethylsulfonyl)piperidin-3-yl]amino}pyrimidin-4-yl)imidazo[2,1-b][1,3]thiazol-6-yl]phenol], which IC50 is on record?
The IC50 was greater than 3000 nM.

How did the IC50 turn out when `CC(=O)Nc1ccc(S(=O)(=O)N2CCC[C@@H](Nc3nccc(-c4c(-c5cccc(O)c5)nc5sccn45)n3)C2)cc1` [Example 374, N-(4-{[(3R)-3-({4-[6-(3-hydroxyphenyl)imidazo[2,1-b][1,3]thiazol-5-yl]pyrimidin-2-yl}amino)piperidin-1-yl]sulfonyl}phenyl)acetamide] was run?
The IC50 was 1 nM.

How did the IC50 turn out when `O=S(=O)(CC(F)(F)F)N1CCC[C@@H](Nc2nccc(-c3c(-c4cccc(O)c4)nc4sccn34)n2)C1` [Example 375, 3-{5-[2-({(3R)-1-[(2,2,2-trifluoroethyl)sulfonyl]piperidin-3-yl}amino)pyrimidin-4-yl]imidazo[2,1-b][1,3]thiazol-6-yl}phenol] was run?
Its IC50 is greater than 3000 nM.

Which IC50 does the source give for `Cn1ccc(S(=O)(=O)N2CCC[C@@H](Nc3nccc(-c4c(-c5cccc(O)c5)nc5sccn45)n3)C2)n1` [Example 376, 3-{5-[2-({(3R)-1-[(1-methyl-1H-pyrazol-3-yl)sulfonyl]piperidin-3-yl}amino)pyrimidin-4-yl]imidazo[2,1-b][1,3]thiazol-6-yl}phenol] here?
Its IC50 is 1 nM.

`NS(=O)(=O)Oc1cccc(-c2nc3sccn3c2-c2ccnc(N[C@@H]3CCCN(S(=O)(=O)c4ccc(Cl)cc4)C3)n2)c1` [Example 377, 3-{5-[2-({(3R)-1-{(4-chlorophenyl)sulfonyl]piperidin-3-yl}amino)pyrimidin-4-yl]imidazo[2,1-b][1,3]thiazol-6-yl}phenyl sulfamate] was tested. Which IC50 did it give?
Its IC50 is 85 nM.

For `O=S(=O)(c1ccc(Cl)cc1)N1CCC[C@@H](Nc2nccc(-c3c(-c4ccc(CO)cc4)nc4sccn34)n2)C1` [Example 378, (4-{5-[2-({(3R)-1-[(4-chlorophenyl)sulfonyl]piperidin-3-yl}amino)pyrimidin-4-yl]imidazo[2,1-b][1,3]thiazol-6-yl}phenyl)methanol], which IC50 is on record?
The IC50 was 2260 nM.

`NC(=O)c1ccc(-c2nc3sccn3c2-c2ccnc(N[C@@H]3CCCN(S(=O)(=O)c4ccc(Cl)cc4)C3)n2)cc1` [Example 379, 4-{5-[2-({(3R)-1-[(4-chlorophenyl)sulfonyl]piperidin-3-yl}amino)pyrimidin-4-yl]imidazo[2,1-b][1,3]thiazol-6-yl}benzamide] was tested. Which IC50 did it give?
The IC50 was 2670 nM.

Which IC50 does the source give for `NS(=O)(=O)Oc1cccc(-c2nc3occn3c2-c2ccnc(N[C@@H]3CCCN(S(=O)(=O)c4ccc(Cl)cc4)C3)n2)c1` [Example 380, 3-{5-[2-({(3R)-1-[(4-chlorophenyl)sulfonyl]piperidin-3-yl}amino)pyrimidin-4-yl]imidazo[2,1-b][1,3]oxazol-6-yl}phenyl sulfamate] here?
The IC50 was 1590 nM.

Which IC50 does the source give for `O=S(=O)(c1nnc[nH]1)N1CCC[C@@H](Nc2nccc(-c3c(-c4cccc(O)c4)nc4sccn34)n2)C1` [Example 381, 3-[5-(2-{[(3R)-1-(4H-1,2,4-tri-azol-3-ylsulfonyl)piperidin-3-yl]amino}pyrimidin-4-yl)imidazo[2,1-b][1,3]thiazol-6-yl]phenol] here?
The IC50 was 15 nM.

For `O=C(O)c1cccc(-c2nc3sccn3c2-c2ccnc(N[C@@H]3CCCN(S(=O)(=O)c4ccc(Cl)cc4)C3)n2)c1` [Example 382, 3-{5-[2-({(3R)-1-[(4-chlorophenyl)sulfonyl]piperidin-3-yl}amino)pyrimidin-4-yl]imidazo[2,1-b][1,3]thiazol-6-yl}benzoic acid], which IC50 is on record?
The IC50 was 1190 nM.

`CC(=O)c1cccc(-c2nc3sccn3c2-c2ccnc(N[C@@H]3CCCN(S(=O)(=O)c4ccc(Cl)cc4)C3)n2)c1` [Example 384, 1-(3-{5-[2-({(3R)-1-[(4-chlorophenyl)sulfonyl]piperidin-3-yl)amino)pyrimidin-4-yl]imidazo[2,1-b][1,3]thiazol-6-yl}phenyl)ethanone] was tested. Which IC50 did it give?
Its IC50 is 1300 nM.

Which IC50 does the source give for `O=Cc1ccc(-c2nc3sccn3c2-c2ccnc(N[C@@H]3CCCN(S(=O)(=O)c4ccc(Cl)cc4)C3)n2)cc1` [Example 385, 4-{5-[2-({(3R)-1-[(4-chlorophenyl)sulfonyl]piperidin-3-yl}amino)pyrimidin-4-yl]imidazo[2,1-b][1,3]thiazol-6-yl}benzaldehyde] here?
Its IC50 is 876 nM.

How did the IC50 turn out when `NC(=O)Oc1cccc(-c2nc3occn3c2-c2ccnc(N[C@@H]3CCCN(S(=O)(=O)c4ccc(Cl)cc4)C3)n2)c1` [Example 386, 3-{5-[2-({(3R)-1-[(4-chlorophenyl)sulfonyl]piperidin-3-yl}amino)pyrimidin-4-yl]imidazo[2,1-b][1,3]oxazol-6-yl}phenyl carbamate] was run?
The IC50 was 109 nM.

For `CCCOC(=O)N1CCC(Nc2nccc(-c3c(-c4cccc(O)c4)nc4sccn34)n2)CC1` [Example 387, propyl 4-({4-[6-(3-hydroxyphenyl)imidazo[2,1-b][1,3]thiazol-5-yl]pyrimidin-2-yl}amino)piperidine-1-carboxylate], which IC50 is on record?
The IC50 was greater than 3000 nM.

For `O=S(=O)(c1cccs1)N1CCC[C@@H](Nc2nccc(-c3c(-c4cccc(O)c4)nc4occn34)n2)C1` [Example 388, 3-[5-(2-{[(3R)-1-(2-thienylsulfonyl)piperidin-3-yl]amino}pyrimidin-4-yl)imidazo[2,1-b][1,3]oxazol-6-yl]phenol], which IC50 is on record?
Its IC50 is 9 nM.

For `C/C(=N\O)c1cccc(-c2nc3sccn3c2-c2ccnc(N[C@@H]3CCCN(S(=O)(=O)c4ccc(Cl)cc4)C3)n2)c1` [Example 389, (1E)-1-(3-{5-[2-({(3R)-1-[(4-chlorophenyl)sulfonyl]piperidin-3-yl}amino)pyrimidin-4-yl]imidazo[2,1-b][1,3]thiazol-6-yl}phenyl)ethanone oxime], which IC50 is on record?
Its IC50 is 34 nM.
